Experimental data as given in ChEMBL document CHEMBL1201862, “PubChem BioAssay data set” (2004).
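A five-concentration, 48-hour dose response in 96-well plates underlies each endpoint, interpolated linearly between surrounding concentrations. GI50: concentration for 50% inhibition of growth.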 Active and inactive are the calls of the source. Cut-off read from the data, not from the text of the source: active = GI50 up to about 1.1 µM and inactive = higher.

How the values were obtained:
Assay in all cases: DTP human tumour cell line panel, 48 h
CCRF-CEM = system: CCRF-CEM
MCF7 = system: MCF7
SK-MEL-2 = system: SK-MEL-2
U-251 = system: U-251
NCI/ADR-RES = system: NCI/ADR-RES
NCI-H522 = system: NCI-H522
RPMI-8226 = system: RPMI-8226
786-0 = system: 786-0
A549 = system: A549
NCI-H23 = system: NCI-H23
MDA-MB-435 = system: MDA-MB-435
MDA-MB-231 = system: MDA-MB-231
PC-3 = system: PC-3
NCI-H460 = system: NCI-H460
HOP-92 = system: HOP-92
IGROV-1 = system: IGROV-1
A498 = system: A498
SNB-19 = system: SNB-19
HL-60 = system: HL-60
UO-31 = system: UO-31

Measured: GI50

COC(CN(C)C(=O)C(C)NC(=O)c1ccccc1)OC (stereo not given)
inactive: CCRF-CEM > 100 µM | MCF7 > 100 µM | SK-MEL-2 > 100 µM | U-251 > 100 µM | NCI/ADR-RES > 100 µM | NCI-H522 > 100 µM | RPMI-8226 > 100 µM | 786-0 > 100 µM | A549 > 100 µM | NCI-H23 > 100 µM | MDA-MB-435 > 100 µM | MDA-MB-231 > 100 µM | PC-3 > 100 µM | NCI-H460 > 100 µM | HOP-92 > 100 µM | IGROV-1 > 100 µM

O=c1oc2ccccc2n1CCN1CCCCC1
inactive: A498 > 100 µM | CCRF-CEM > 100 µM | MCF7 > 100 µM | SK-MEL-2 > 100 µM | SNB-19 > 100 µM | U-251 > 100 µM | HL-60 > 100 µM | NCI/ADR-RES > 100 µM | RPMI-8226 > 100 µM | 786-0 > 100 µM | NCI-H23 > 100 µM | MDA-MB-435 > 100 µM | MDA-MB-231 > 100 µM | PC-3 > 100 µM | NCI-H460 > 100 µM | IGROV-1 > 100 µM

CC(=O)N(CCc1ccccc1)C(C#N)c1ccc(OCCCCCCCCCCOc2ccc(C(C#N)N(CCc3ccccc3)C(C)=O)cc2)cc1 (stereo not given)
inactive: A498 31.3 µM | CCRF-CEM > 100 µM | MCF7 > 100 µM | SK-MEL-2 47.2 µM | SNB-19 20.5 µM | U-251 21.7 µM | HL-60 > 100 µM | NCI/ADR-RES 24.6 µM | 786-0 16.2 µM | A549 > 100 µM | NCI-H23 44.9 µM | MDA-MB-435 > 100 µM | MDA-MB-231 15.2 µM | PC-3 63.4 µM | NCI-H460 94.8 µM | HOP-92 15 µM | IGROV-1 31.6 µM | UO-31 62.2 µM

O=C([C@H](O)[C@@H](O)c1ccc(Br)cc1)C12CC3CC(CC(C3)C1)C2
inactive: A498 11.6 µM | MCF7 7.31 µM | SK-MEL-2 16.3 µM | SNB-19 19.2 µM | U-251 7.18 µM | NCI/ADR-RES 24.9 µM | NCI-H522 10.8 µM | RPMI-8226 14.3 µM | 786-0 9.53 µM | A549 9.38 µM | NCI-H23 8.45 µM | MDA-MB-435 11.6 µM | MDA-MB-231 10.5 µM | PC-3 6.58 µM | NCI-H460 3.74 µM | IGROV-1 4.48 µM | UO-31 23.7 µM

O=C1OCC(CN2CCC(n3c(=O)[nH]c4ccccc43)CC2)=C1c1ccccc1
inactive: A498 23.5 µM | CCRF-CEM 13.7 µM | MCF7 28.2 µM | SK-MEL-2 19.8 µM | SNB-19 26.1 µM | U-251 35.5 µM | HL-60 15.5 µM | NCI/ADR-RES 22.5 µM | NCI-H522 19.2 µM | RPMI-8226 28.8 µM | 786-0 33.4 µM | A549 30.1 µM | NCI-H23 21.2 µM | MDA-MB-435 25.3 µM | MDA-MB-231 26.4 µM | PC-3 19 µM | NCI-H460 6.78 µM | IGROV-1 22.2 µM | UO-31 11.5 µM

Clc1ccc(/C=N/c2ccc(Oc3ccc(Cl)cc3)c(Cl)c2)cc1
inactive: CCRF-CEM 15.8 µM | MCF7 30.8 µM | SK-MEL-2 22.1 µM | SNB-19 23 µM | U-251 23.9 µM | HL-60 23.3 µM | NCI/ADR-RES 20.8 µM | NCI-H522 14.3 µM | RPMI-8226 28.4 µM | 786-0 17.9 µM | A549 22.3 µM | NCI-H23 23.5 µM | MDA-MB-435 29.7 µM | MDA-MB-231 22 µM | PC-3 22.1 µM | NCI-H460 21.5 µM | HOP-92 19.4 µM | IGROV-1 38.5 µM | UO-31 11.5 µM
